Values of other authors as cited in patent US8496960B2 (Purdue Pharma L.P., priority 2001, dated 2013).

What was measured:
[1] = following oral administration

For `COc1cc2nc(N3CCN(C(=O)C4CCCO4)CC3)nc(N)c2cc1OC` (stereo not drawn) [terazosin], the first-pass effect (following oral administration) is given as “minimal”, the “effect of food on bioavailability” value (oral, with food) is given as “no significant effect” and the “time to antihypertensive effects” value [1] is given as ≤ 15 min.
